Activity calls are given as the source filed them. The rule behind the calls is not given here.
What was measured:
[1] = biological target: Dipeptidyl peptidase 1 (Homo sapiens, UniProt P53634); experiment: Inhibition of human recombinant Cathepsin C using Gly-Phe-AFC as substrate preincubated for 3 hrs followed by substrate addition and measured after 1 hr by fluorescence based multifunctional microplate reader analysis
[2] = MRT in male Sprague-Dawley rat at 10 mg/kg, po measured at 5 to 1440 mins by LC-MS/MS analysis; format: ADME, organism-based; conditions: in vivo, time 5-1440 min
[3] = Cmax in male Sprague-Dawley rat at 2 mg/kg, iv measured at 5 to 1440 mins by LC-MS/MS analysis; format: ADME, organism-based; conditions: in vivo, time 5-1440 min
[4] = Oral bioavailability in male Sprague-Dawley rat at 10 mg/kg measured at 5 to 1440 mins by LC-MS/MS analysis; format: ADME, organism-based; conditions: in vivo, time 5-1440 min
[5] = biological target: T1, Dipeptidyl peptidase 1 (Mus musculus) (UniProt P97821); experiment: In vivo inhibition of Cathepsin C in C57BL/6 mouse assessed as reduction in cathepsin C activity in bone marrow administered orally once daily for 6 days by fluorescence based microplate reader; format: functional, organism-based; conditions: dose 5-30 mg/kg, route po, time 6.0 day
T1 sequence (whole entry): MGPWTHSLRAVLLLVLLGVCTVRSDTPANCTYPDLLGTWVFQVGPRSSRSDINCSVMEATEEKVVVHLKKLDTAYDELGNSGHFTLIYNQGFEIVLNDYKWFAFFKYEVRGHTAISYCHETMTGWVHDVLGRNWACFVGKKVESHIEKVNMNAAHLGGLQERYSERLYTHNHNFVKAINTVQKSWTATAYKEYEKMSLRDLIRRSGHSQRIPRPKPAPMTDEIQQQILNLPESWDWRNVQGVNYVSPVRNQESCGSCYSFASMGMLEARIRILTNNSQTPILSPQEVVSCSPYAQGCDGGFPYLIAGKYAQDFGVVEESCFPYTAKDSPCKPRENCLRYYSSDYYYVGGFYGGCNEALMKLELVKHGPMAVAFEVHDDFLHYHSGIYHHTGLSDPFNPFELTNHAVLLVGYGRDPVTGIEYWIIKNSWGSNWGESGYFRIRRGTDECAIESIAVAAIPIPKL

[6] = biological target: T1, Dipeptidyl peptidase 1 (Mus musculus); experiment: In vivo inhibition of Cathepsin C in C57BL/6 mouse assessed as reduction in cathepsin C activity in blood at 30 mg/kg, po administered once daily for 6 days by fluorescence based microplate reader relative to control; format: functional, organism-based; conditions: time 6.0 day
[7] = biological target: T2, Myeloblastin (Mus musculus) (UniProt Q61096); experiment: In vivo inhibition of proteinase 3 in C57BL/6 mouse assessed as reduction in proteinase 3 activity in blood at 30 mg/kg, po administered once daily for 6 days by fluorescence based microplate reader relative to control; format: functional, organism-based; conditions: time 6.0 day
T2 sequence (whole entry): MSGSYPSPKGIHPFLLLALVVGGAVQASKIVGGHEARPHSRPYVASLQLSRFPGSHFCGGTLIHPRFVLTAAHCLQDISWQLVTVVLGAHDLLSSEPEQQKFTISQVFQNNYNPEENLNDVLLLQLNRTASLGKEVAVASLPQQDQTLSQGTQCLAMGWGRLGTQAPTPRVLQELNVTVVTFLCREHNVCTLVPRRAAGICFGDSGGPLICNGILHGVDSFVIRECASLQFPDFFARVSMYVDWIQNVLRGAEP

[8] = biological target: T3, Neutrophil elastase (Mus musculus) (UniProt Q3UP87); experiment: In vivo inhibition of neutrophil elastase in C57BL/6 mouse assessed as reduction in neutrophil elastase activity in bone marrow at 30 mg/kg, po administered once daily for 6 days by fluorescence based microplate reader relative to control; format: functional, organism-based; conditions: time 6.0 day
T3 sequence (whole entry): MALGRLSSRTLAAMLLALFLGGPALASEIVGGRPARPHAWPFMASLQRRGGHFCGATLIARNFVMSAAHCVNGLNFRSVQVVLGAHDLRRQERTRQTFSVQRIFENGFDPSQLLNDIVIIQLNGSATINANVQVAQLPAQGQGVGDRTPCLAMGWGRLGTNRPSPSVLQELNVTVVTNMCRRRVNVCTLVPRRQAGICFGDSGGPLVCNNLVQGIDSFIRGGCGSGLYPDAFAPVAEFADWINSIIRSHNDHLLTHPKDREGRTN

[9] = biological target: T4, Cathepsin G (Mus musculus) (UniProt P28293); experiment: In vivo inhibition of Cathepsin G in C57BL/6 mouse assessed as reduction in cathepsin G activity in bone marrow at 30 mg/kg, po administered once daily for 6 days by fluorescence based microplate reader relative to control; format: functional, organism-based; conditions: time 6.0 day
T4 sequence (whole entry): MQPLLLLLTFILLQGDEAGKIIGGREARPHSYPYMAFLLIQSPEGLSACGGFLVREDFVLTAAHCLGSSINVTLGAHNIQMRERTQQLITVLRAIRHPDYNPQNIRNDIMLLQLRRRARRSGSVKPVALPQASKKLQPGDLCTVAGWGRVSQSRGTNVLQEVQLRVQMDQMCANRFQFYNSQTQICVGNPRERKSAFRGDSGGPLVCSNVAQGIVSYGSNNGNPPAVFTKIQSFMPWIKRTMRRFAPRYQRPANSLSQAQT

[10] = Acute toxicity in ICR mouse assessed as liver pathological change at 1500 mg/kg, po administered daily for 7 days by H and E staining based analysis; format: organism-based; conditions: in vivo, 168 h, time 7 day
[11] = biological target: Voltage-gated inwardly rectifying potassium channel KCNH2 (Homo sapiens, UniProt Q12809); experiment: Inhibition of hERG; format: toxicity
[12] = system: Mus musculus; experiment: Anti-inflammatory activity in DSS-induced ulcerative colitis male C57BL/6 mouse model assessed as reduction in IL- 6 expression in serum administered via gavage for 10 days by ELISA; format: functional, organism-based; conditions: dose 15-60 mg/kg, time 10.0 day
[13] = system: Mus musculus; experiment: Anti-inflammatory activity in DSS-induced ulcerative colitis male C57BL/6 mouse model assessed as reduction in Cathepsin G level in serum at 60 mg/kg administered via gavage for 10 days relative to control; format: functional; design: scale not given: the % may be the effect or the level left; conditions: time 10 day
[14] = system: Mus musculus; experiment: Anti-inflammatory activity in DSS-induced ulcerative colitis male C57BL/6 mouse model assessed as reduction in proteinase 3 level in colon at 60 mg/kg administered via gavage for 10 days relative to control; format: functional; design: scale not given: the % may be the effect or the level left; conditions: time 10 day
[15] = biological target: T4, Cathepsin G (Mus musculus); experiment: Induction of Cathepsin G degradation in C57BL/6 mouse bone marrow cells assessed as remaining activity at 10 uM incubated for 12 hrs by Western blot analysis relative to control; format: cell-based; conditions: Bone marrow cell
[16] = system: Mus musculus; experiment: Anti-inflammatory activity in DSS-induced ulcerative colitis C57BL/6 mouse model assessed as effect on inflammatory factors at 60 mg/kg, administered twice daily; format: functional, organism-based

Dipeptidyl peptidase 1, sequence (P53634 25-134 limits assumed): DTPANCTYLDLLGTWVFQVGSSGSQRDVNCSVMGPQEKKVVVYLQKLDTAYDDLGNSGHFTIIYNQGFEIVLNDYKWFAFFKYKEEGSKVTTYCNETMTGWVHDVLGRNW
Dipeptidyl peptidase 1, sequence (P53634 231-394 limits assumed): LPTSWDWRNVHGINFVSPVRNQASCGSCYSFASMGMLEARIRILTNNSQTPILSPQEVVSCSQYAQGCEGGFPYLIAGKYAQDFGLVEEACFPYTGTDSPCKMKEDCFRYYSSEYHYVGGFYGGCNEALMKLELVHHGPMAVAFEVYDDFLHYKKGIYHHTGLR
Dipeptidyl peptidase 1, sequence (P53634 395-463 limits assumed): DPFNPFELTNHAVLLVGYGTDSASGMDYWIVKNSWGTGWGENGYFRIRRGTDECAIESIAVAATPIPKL
Voltage-gated inwardly rectifying potassium channel KCNH2, sequence (Q12809 whole entry): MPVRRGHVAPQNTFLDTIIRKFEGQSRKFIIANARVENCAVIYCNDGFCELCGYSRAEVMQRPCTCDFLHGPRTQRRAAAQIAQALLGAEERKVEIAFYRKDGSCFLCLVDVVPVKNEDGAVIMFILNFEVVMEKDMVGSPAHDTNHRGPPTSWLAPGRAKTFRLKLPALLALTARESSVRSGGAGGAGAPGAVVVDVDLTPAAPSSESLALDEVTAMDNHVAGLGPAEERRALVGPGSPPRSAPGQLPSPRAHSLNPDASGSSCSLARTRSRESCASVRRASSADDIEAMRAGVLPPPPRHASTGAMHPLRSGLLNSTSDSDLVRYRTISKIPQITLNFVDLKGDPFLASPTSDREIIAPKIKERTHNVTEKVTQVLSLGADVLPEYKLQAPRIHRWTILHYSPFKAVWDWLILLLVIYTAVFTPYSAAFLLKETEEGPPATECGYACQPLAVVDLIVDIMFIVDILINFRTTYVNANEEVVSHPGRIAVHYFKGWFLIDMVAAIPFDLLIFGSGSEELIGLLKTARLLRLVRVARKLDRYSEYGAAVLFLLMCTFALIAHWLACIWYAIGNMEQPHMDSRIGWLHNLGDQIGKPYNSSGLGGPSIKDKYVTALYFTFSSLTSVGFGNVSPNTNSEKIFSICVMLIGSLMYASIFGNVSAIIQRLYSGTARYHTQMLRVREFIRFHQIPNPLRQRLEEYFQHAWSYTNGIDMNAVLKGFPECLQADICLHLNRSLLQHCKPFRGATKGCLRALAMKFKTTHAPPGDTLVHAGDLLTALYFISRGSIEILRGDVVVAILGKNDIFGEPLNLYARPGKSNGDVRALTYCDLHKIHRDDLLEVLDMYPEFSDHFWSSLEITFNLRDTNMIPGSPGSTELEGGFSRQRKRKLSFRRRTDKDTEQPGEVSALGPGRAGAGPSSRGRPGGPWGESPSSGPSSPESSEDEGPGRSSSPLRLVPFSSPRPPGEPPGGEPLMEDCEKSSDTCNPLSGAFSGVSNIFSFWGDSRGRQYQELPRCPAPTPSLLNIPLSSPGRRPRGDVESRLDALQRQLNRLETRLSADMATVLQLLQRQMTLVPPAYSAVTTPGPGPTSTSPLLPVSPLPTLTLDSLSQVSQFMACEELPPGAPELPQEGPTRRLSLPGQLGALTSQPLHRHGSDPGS

O=C1Nc2c(cccc2-c2ccc(NC3CCOCC3)cc2)/C1=C/c1ccnc2ccccc12
IC50 [1]: 84.3 nM
MRT [2]: 2.98 h
Cmax [3]: 309 ng/mL
F [4]: 29.05%
inhibition [5]: Dose-dependent-effect
inhibition [6]: 27.2%
inhibition [7]: 44.8%
inhibition [8]: 59.1%
inhibition [9]: 55.2%
Activity [10]: Non-toxic
IC50 [11]: > 30000 nM
Activity [12]: Dose-dependent-effect; Significant Reduction Observed In High Dose Group
Activity [13]: 40%
Activity [14]: 47%
Activity [15]: 75%
Activity [16]: Active

Reference: ChEMBL document CHEMBL6092168, “Identification of novel indolinone derivatives as CTSC inhibitors to treat inflammatory bowel disease by modulating inflammatory factors” (Eur J Med Chem, 2024)
